From ChEMBL document CHEMBL5291721, “A preclinical secondary pharmacology resource illuminates target-adverse drug reaction associations of marketed drugs” (Nat Commun, 2023) come the findings set out here.

One assay concerns the target Adenosine receptor A2a (Homo sapiens, UniProt P29274).
A further assay has as its target T1, Progesterone receptor (Homo sapiens, UniProt P06401).
T1 sequence (P06401 whole entry): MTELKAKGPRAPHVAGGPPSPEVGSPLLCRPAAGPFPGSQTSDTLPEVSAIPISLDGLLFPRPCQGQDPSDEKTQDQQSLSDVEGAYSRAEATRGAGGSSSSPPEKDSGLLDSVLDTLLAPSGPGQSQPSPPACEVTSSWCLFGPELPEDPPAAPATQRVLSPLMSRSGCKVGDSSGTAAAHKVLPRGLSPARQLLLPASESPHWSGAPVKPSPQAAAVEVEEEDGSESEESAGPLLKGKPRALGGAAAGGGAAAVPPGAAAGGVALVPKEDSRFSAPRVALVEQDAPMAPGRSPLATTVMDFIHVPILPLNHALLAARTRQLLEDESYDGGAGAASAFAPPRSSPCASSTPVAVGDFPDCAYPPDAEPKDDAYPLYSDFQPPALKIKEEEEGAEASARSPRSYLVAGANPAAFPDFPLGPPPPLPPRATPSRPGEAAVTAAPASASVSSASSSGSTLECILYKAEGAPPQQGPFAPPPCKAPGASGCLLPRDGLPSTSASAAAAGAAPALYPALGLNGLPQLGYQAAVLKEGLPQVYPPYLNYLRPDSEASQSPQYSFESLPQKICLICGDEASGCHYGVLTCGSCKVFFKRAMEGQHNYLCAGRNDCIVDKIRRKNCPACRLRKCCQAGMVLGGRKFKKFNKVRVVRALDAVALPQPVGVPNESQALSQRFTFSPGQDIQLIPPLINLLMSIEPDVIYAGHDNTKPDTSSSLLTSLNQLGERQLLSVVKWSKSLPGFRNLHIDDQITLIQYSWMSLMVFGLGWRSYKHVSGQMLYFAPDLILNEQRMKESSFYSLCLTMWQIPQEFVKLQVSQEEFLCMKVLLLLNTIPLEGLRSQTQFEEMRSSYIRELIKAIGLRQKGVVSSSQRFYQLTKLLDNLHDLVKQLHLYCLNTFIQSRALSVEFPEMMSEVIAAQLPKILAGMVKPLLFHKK
The assay is classed as functional.

Assay [1] has as its target 5-hydroxytryptamine receptor 2B (Homo sapiens, UniProt P41595). The format is functional, cell-based.
Assay [2] addresses T2, Alpha-2A adrenergic receptor (Homo sapiens, UniProt P08913).
T2 sequence (P08913 whole entry): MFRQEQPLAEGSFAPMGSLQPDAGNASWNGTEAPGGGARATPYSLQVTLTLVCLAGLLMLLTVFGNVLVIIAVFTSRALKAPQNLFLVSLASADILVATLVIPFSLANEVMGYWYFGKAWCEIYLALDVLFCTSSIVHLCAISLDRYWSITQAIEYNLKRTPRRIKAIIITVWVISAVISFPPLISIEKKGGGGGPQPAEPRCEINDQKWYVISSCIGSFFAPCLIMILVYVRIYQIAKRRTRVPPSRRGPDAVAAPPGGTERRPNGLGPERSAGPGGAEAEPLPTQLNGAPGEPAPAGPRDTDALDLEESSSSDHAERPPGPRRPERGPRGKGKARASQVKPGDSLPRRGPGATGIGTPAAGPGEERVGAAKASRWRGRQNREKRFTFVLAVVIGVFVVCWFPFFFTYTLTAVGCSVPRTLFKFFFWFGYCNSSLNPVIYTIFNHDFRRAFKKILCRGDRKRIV
The format is functional, cell-based.

Another assay concerns the target Vasopressin V2 receptor (Homo sapiens, UniProt P30518).
Assay [3] addresses T3, Gastrin/cholecystokinin type B receptor (Homo sapiens, UniProt P32239).
T3 sequence (P32239 whole entry): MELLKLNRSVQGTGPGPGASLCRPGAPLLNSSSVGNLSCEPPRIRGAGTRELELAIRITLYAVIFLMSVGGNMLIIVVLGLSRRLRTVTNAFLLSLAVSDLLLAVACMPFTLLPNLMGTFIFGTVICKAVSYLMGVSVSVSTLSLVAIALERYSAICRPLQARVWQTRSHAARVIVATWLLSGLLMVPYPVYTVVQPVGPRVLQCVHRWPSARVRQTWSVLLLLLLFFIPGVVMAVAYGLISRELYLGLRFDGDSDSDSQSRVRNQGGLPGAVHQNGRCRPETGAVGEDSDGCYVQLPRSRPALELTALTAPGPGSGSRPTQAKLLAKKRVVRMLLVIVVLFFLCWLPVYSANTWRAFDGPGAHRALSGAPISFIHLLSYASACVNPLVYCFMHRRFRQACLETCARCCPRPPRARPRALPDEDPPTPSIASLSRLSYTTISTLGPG
Note: assay procedure not described here.

Chain of Vasopressin V2 receptor (P30518 whole entry): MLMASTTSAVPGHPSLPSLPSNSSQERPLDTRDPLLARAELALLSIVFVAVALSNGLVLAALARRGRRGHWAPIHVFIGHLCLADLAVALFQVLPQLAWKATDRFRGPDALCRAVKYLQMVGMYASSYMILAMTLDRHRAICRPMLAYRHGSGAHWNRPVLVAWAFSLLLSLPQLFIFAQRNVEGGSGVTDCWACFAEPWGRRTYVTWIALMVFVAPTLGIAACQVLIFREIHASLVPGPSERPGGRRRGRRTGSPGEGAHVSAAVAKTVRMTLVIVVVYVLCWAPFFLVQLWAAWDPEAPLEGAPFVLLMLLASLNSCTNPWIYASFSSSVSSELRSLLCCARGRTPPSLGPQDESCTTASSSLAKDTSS
Chain of 5-hydroxytryptamine receptor 2B (P41595 whole entry): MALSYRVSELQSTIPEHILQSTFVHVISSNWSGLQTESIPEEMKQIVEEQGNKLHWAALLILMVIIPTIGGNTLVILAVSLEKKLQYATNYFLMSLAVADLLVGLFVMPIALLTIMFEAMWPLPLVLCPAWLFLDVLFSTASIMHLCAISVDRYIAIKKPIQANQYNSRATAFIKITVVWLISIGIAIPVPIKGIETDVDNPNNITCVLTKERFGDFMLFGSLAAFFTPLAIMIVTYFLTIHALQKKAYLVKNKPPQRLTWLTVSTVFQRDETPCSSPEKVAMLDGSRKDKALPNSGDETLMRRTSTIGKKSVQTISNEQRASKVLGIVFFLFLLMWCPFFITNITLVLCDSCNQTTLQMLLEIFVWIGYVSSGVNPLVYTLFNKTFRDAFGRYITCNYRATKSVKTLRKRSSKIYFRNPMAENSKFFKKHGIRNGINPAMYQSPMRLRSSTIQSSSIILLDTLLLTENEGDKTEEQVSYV
Chain of Adenosine receptor A2a (P29274 whole entry): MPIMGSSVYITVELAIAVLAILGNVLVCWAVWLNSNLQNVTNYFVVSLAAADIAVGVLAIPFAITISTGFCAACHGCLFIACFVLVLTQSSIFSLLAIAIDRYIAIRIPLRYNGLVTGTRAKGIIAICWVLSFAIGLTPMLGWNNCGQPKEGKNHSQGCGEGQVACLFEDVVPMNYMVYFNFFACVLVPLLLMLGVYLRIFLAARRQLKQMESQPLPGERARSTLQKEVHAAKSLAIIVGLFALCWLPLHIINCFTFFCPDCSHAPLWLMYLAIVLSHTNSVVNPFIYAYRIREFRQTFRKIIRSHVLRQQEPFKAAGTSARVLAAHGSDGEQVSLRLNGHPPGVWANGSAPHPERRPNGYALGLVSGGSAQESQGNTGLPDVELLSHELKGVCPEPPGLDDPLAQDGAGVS

Regarding `C[C@@H](NCCCc1cccc(C(F)(F)F)c1)c1cccc2ccccc12`, the AC50 is over 30 µM at Adenosine receptor A2a; over 30 µM on Progesterone receptor; over 30 µM in assay [1]; over 30 µM in assay [2]; 20 µM at Vasopressin V2 receptor; over 30 µM in assay [3].

Take `C[C@]12C=CC(=O)N[C@@H]1CC[C@@H]1[C@@H]2CC[C@]2(C)[C@@H](C(=O)Nc3cc(C(F)(F)F)ccc3C(F)(F)F)CC[C@@H]12` [DUTASTERIDE]: the concentration at half-maximal activity (AC50) (on Adenosine receptor A2a; on Progesterone receptor; in assay [1]; in assay [2]; at Vasopressin V2 receptor) was over 10 µM in each case.

For `CN(C)CCc1c[nH]c2ccc(Cn3cncn3)cc12` [RIZATRIPTAN], the AC50 is over 30 µM on Adenosine receptor A2a; 14 µM in assay [1]; over 30 µM in assay [2]; over 30 µM on Vasopressin V2 receptor; over 30 µM in assay [3].

Turning to `Nc1ccc(S(=O)(=O)Nc2nccs2)cc1` [SULFATHIAZOLE], the AC50 was over 30 µM on Adenosine receptor A2a; over 10 µM in assay [1]; over 10 µM in assay [2]; over 30 µM on Vasopressin V2 receptor; over 30 µM in assay [3].

`OC[C@H]1O[C@@](CO)(O[C@H]2O[C@H](CO)[C@@H](O)[C@H](O)[C@H]2O)[C@@H](O)[C@@H]1O` [SUCROSE]: the AC50 (at Adenosine receptor A2a; on Progesterone receptor; in assay [1]; in assay [2]; on Vasopressin V2 receptor; in assay [3]) was over 30 µM each time.

As to `N[C@@H](CC(=O)N1CCn2c(nnc2C(F)(F)F)C1)Cc1cc(F)c(F)cc1F` [SITAGLIPTIN], the AC50 is over 30 µM at Adenosine receptor A2a; over 30 µM on Progesterone receptor; over 30 µM in assay [1]; over 30 µM in assay [2]; over 10 µM in assay [3].

Turning to `CC(S)C(=O)NCC(=O)O` (stereo unspecified) [TIOPRONIN], the concentration at half-maximal activity (AC50) (on Adenosine receptor A2a; at Progesterone receptor; in assay [1]; in assay [2]) was over 30 µM each time.

For the molecule `COc1ccc(CC2c3cc(OC)c(OC)cc3CC[N+]2(C)CCC(=O)OCCCCCOC(=O)CC[N+]2(C)CCc3cc(OC)c(OC)cc3C2Cc2ccc(OC)c(OC)c2)cc1OC` (stereo unspecified), the AC50 (at Adenosine receptor A2a; on Progesterone receptor; in assay [1]; in assay [2]; on Vasopressin V2 receptor; in assay [3]) was over 30 µM throughout.

Regarding `CC(C)(C)NCC(O)c1cc(O)cc(O)c1` (stereo unspecified) [TERBUTALINE], the AC50 (on Adenosine receptor A2a; at Progesterone receptor; at Vasopressin V2 receptor; in assay [3]) was over 30 µM throughout.

With `CC(N)C12CC3CC(CC(C3)C1)C2` (stereo unspecified) [RIMANTADINE], the AC50 (on Adenosine receptor A2a; at Progesterone receptor; in assay [1]; in assay [2]; at Vasopressin V2 receptor) was over 10 µM each time.

For `O=C1CCc2cc(OCCCCc3nnnn3C3CCCCC3)ccc2N1` [CILOSTAZOL], the AC50 (at Adenosine receptor A2a; on Progesterone receptor; in assay [1]; in assay [2]; at Vasopressin V2 receptor; in assay [3]) was over 30 µM in each case.

On to `CCN(CC)CCNC(=O)c1c(C)[nH]c(/C=C2\C(=O)Nc3ccc(F)cc32)c1C` [SUNITINIB], for which the AC50 on Adenosine receptor A2a is 5.3 µM; at Progesterone receptor, 1.7 µM; in assay [1] it was over 30 µM; in assay [2] it was over 30 µM; on Vasopressin V2 receptor, 5.4 µM; in assay [3], over 10 µM.

`COc1ccccc1Oc1c(NS(=O)(=O)c2ccc(C(C)(C)C)cc2)nc(-c2ncccn2)nc1OCCO` [BOSENTAN]: the half-maximal activity concentration (AC50) is over 30 µM on Adenosine receptor A2a; over 30 µM on Progesterone receptor; over 10 µM in assay [1]; over 10 µM in assay [2]; over 30 µM on Vasopressin V2 receptor; over 30 µM in assay [3].

For the molecule `O=C1CN(/N=C/c2ccc(-c3ccc([N+](=O)[O-])cc3)o2)C(O)=N1` [DANTROLENE], the concentration at half-maximal activity (AC50) at Adenosine receptor A2a is over 30 µM; at Progesterone receptor, over 10 µM; in assay [1], over 10 µM; in assay [2], over 10 µM; at Vasopressin V2 receptor it was over 10 µM.

For `CC(C(=O)O)c1ccc2c(c1)[nH]c1ccc(Cl)cc12` (stereo unspecified) [CARPROFEN], the half-maximal activity concentration (AC50) was over 30 µM on Adenosine receptor A2a; over 30 µM at Progesterone receptor; over 10 µM in assay [1]; over 10 µM in assay [2]; over 30 µM at Vasopressin V2 receptor; over 30 µM in assay [3].

With `C[C@H]1c2cccc(O)c2C(=O)C2=C(O)[C@]3(O)C(=O)C(C(N)=O)=C(O)[C@@H](N(C)C)[C@@H]3[C@@H](O)[C@@H]21` [DOXYCYCLINE], the AC50 is over 30 µM at Adenosine receptor A2a; over 10 µM in assay [1]; over 10 µM in assay [2]; over 30 µM on Vasopressin V2 receptor; over 30 µM in assay [3].

Regarding `CCN1CCN(Cc2ccc(Nc3ncc(F)c(-c4cc(F)c5nc(C)n(C(C)C)c5c4)n3)nc2)CC1` [ABEMACICLIB], the AC50 (on Adenosine receptor A2a; on Progesterone receptor; in assay [1]; in assay [2]) was over 30 µM in each case.

For `O=C1C(CC[S+]([O-])c2ccccc2)C(=O)N(c2ccccc2)N1c1ccccc1` (stereo unspecified) [SULFINPYRAZONE], the AC50 on Adenosine receptor A2a was over 10 µM; on Progesterone receptor, over 10 µM; in assay [1], over 30 µM; in assay [2], over 30 µM; on Vasopressin V2 receptor it was over 10 µM.

Turning to `CCCC(CCC)C(=O)O` [VALPROIC ACID], the AC50 was over 30 µM at Adenosine receptor A2a; over 10 µM in assay [1]; over 10 µM in assay [2]; over 30 µM on Vasopressin V2 receptor; over 30 µM in assay [3].

`C[C@H](CCC(=O)O)[C@H]1CC[C@H]2[C@@H]3[C@@H](O)C[C@@H]4C[C@H](O)CC[C@]4(C)[C@H]3CC[C@]12C` [URSODIOL]: the AC50 (on Adenosine receptor A2a; in assay [1]; in assay [2]) was over 30 µM each time.

Regarding `COc1cc2nc(N3CCN(C(=O)C4CCCO4)CC3)nc(N)c2cc1OC` (stereo unspecified) [TERAZOSIN], the AC50 on Adenosine receptor A2a was over 30 µM; in assay [1], over 10 µM; in assay [2] it was over 30 µM; at Vasopressin V2 receptor, over 30 µM; in assay [3], over 30 µM.

Turning to `CN1C(C(=O)Nc2ccccn2)=C(O)c2ccccc2S1(=O)=O` [PIROXICAM], the AC50 (at Adenosine receptor A2a; at Progesterone receptor; in assay [1]; in assay [2]; on Vasopressin V2 receptor) was over 10 µM each time.

As to `CN1C[C@H](C(=O)N[C@]2(C)O[C@@]3(O)[C@@H]4CCCN4C(=O)[C@H](Cc4ccccc4)N3C2=O)C=C2c3cccc4[nH]cc(c34)C[C@H]21` [ERGOTAMINE], the AC50 is over 30 µM at Adenosine receptor A2a, over 30 µM at Progesterone receptor, over 10 µM in assay [1] and over 10 µM in assay [2].

Regarding `C=C[C@H]1C[N@@]2CC[C@H]1C[C@@H]2[C@@H](O)c1ccnc2ccc(OC)cc12` [QUINIDINE], the AC50 at Adenosine receptor A2a is over 30 µM; in assay [1] it was 1.16 µM; in assay [2] it was over 10 µM; on Vasopressin V2 receptor, over 30 µM; in assay [3] it was over 30 µM.

For orientation: AC50 means the midpoint of the concentration-response curve, whichever way the signal moves. Higher therefore signals activity only at high concentration.
